One experiment has as its target BACE (Homo sapiens (Human), UniProt P56817). The experiment can be described thus: In vitro BACE cell-based assay (Aβ40 in conditioned medium, sandwich ELISA).
The target in a further experiment is Cathepsin D (Cat D) (Homo sapiens (Human), UniProt P07339). The experiment can be described thus: In vitro enzymatic Cathepsin D (Cat D) FRET assay. It counts as biochemical. The following applies: read-out: CatD IC50.
For experiment [1], the target named is Beta Secretase enzyme (BACE) (Homo sapiens (Human), UniProt P56817). The experiment can be described thus: In vitro enzymatic BACE FRET assay. It counts as biochemical. The following applies: read-out: BACE1 Enzyme assay IC50.
Chain of Beta Secretase enzyme (BACE) (P56817 46-501): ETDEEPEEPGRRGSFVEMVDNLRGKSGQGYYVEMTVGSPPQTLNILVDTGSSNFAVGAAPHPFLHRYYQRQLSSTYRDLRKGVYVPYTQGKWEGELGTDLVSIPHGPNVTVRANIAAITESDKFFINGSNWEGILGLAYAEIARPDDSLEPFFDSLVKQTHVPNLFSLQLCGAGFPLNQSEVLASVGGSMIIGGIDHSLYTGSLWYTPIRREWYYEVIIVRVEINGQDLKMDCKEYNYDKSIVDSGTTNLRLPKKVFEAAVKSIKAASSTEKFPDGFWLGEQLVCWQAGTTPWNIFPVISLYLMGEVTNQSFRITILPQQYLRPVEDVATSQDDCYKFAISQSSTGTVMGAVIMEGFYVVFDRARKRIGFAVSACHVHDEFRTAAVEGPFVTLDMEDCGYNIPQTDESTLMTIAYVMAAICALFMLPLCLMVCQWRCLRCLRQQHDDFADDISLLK
Protocol: In Vitro Enzymatic BACE FRET (Fluorescence Resonance Energy Transfer) Assay (Enzyme Assay Data in the Example Table I)
The assay buffer used in this screen is 0.05 M acetate, pH 4.2, 10% DMSO final, 100 uM genapol (which is a nonionic detergent, below its Critical Micelle Concentration). […] This assay is effectively started by the addition of FRET substrate (50 nM) and the combination is incubated for one hour. The FRET assay is terminated with by addition of Tris buffer, which raises the pH to neutrality, and the fluorescence is determined. The FRET substrate is a peptide with commercially available fluorophore and quencher, on opposite sides of the BACE cleavage site.

Structures are written as SMILES.

The IC50 is the concentration needed to halve the response being measured.

Chain of BACE (P56817 46-501, species assumed): as the sequence (P56817 46-501) above
Chain of Cathepsin D (Cat D) (P07339 65-412, species assumed): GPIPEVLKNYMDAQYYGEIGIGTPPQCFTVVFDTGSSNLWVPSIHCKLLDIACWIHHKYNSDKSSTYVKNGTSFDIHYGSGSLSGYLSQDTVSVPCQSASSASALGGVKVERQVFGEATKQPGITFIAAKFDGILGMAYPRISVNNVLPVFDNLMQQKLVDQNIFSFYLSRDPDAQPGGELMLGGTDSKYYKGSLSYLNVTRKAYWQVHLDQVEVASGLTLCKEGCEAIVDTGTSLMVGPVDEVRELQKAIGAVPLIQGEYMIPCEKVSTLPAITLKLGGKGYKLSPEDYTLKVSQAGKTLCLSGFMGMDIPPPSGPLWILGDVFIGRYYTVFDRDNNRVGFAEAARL

With `NC1=N[C@](CF)(c2cc(NC(=O)c3ccc(Br)cn3)ccc2Cl)[C@H]2C[C@H]2O1` [Example 274, N-(3-((1R,5S,6R)-3-amino-5-(fluoromethyl)-2-oxa-4-azabicyclo[4.1.0]hept-3-en-5-yl)-4-chlorophenyl)-5-bromopicolinamide], the figures for the IC50 (on BACE; on Cathepsin D (Cat D); in experiment [1]) were 0.012 µM, 538 µM and 0.0322 µM, respectively.
Regarding `NC1=N[C@@](CF)(c2cc(NC(=O)c3ccc(Br)cn3)ccc2Cl)[C@@H]2C[C@@H]2O1` [Example 275, N-(3-((1S,5R,6S)-3-amino-5-(fluoromethyl)-2-oxa-4-azabicyclo[4.1.0]hept-3-en-5-yl)-4-chlorophenyl)-5-bromopicolinamide], the concentration for half-maximal inhibition (IC50) on BACE stood at 0.906 µM; at Cathepsin D (Cat D), 1130 µM; in experiment [1] it was 3.6 µM.
For `N#Cc1ccc(C(=O)Nc2ccc(Cl)c([C@@]3(CF)N=C(N)O[C@@H]4C[C@@H]43)c2)nc1` [Example 277, N-(3-((1R,5S,6R)-3-amino-5-(fluoromethyl)-2-oxa-4-azabicyclo[4.1.0]hept-3-en-5-yl)-4-chlorophenyl)-5-cyanopicolinamide], in that order: 0.0192 µM, 1560 µM and 0.0568 µM.
For `N#Cc1ccc(C(=O)Nc2ccc(Cl)c([C@]3(CF)N=C(N)O[C@H]4C[C@H]43)c2)nc1` [Example 278, N-(3-((1 S,5R,6S)-3-amino-5-(fluoromethyl)-2-oxa-4-azabicyclo[4.1.0]hept-3-en-5-yl)-4-chlorophenyl)-5-cyanopicolinamide], in that order: 2.64 µM, 904 µM and 9.51 µM.
On to `C#CCOc1cnc(C(=O)Nc2ccc(Cl)c([C@@]3(CF)N=C(N)O[C@@H]4C[C@@H]43)c2)cn1` [Example 279, N-(3-((1R,5S,6R)-3-amino-5-(fluoromethyl)-2-oxa-4-azabicyclo[4.1.0]hept-3-en-5-yl)-4-chlorophenyl)-5-(prop-2-yn-1-yloxy)pyrazine-2-carboxamide], for which the IC50 turned out to be 0.0086 µM on BACE, 124 µM on Cathepsin D (Cat D) and 0.0056 µM in experiment [1].
For `C#CCOc1cnc(C(=O)Nc2ccc(Cl)c([C@]3(CF)N=C(N)O[C@H]4C[C@H]43)c2)cn1` [Example 280, N-(3-((1S,5R,6S)-3-amino-5-(fluoromethyl)-2-oxa-4-azabicyclo[4.1.0]hept-3-en-5-yl)-4-chlorophenyl)-5-(prop-2-yn-1-yloxy)pyrazine-2-carboxamide], in that order: 2.89 µM, 1470 µM and 4.78 µM.
The matching figures for `COc1ccc(C(=O)Nc2ccc(Cl)c([C@@]3(CF)N=C(N)O[C@@H]4C[C@@H]43)c2)nc1` [Example 282, N-(3-((1R,5S,6R)-3-amino-5-(fluoromethyl)-2-oxa-4-azabicyclo[4.1.0]hept-3-en-5-yl)-4-chlorophenyl)-5-methoxypicolinamide]: 0.0243 µM, 650 µM and 0.196 µM.
For `COc1cnc(C(=O)Nc2ccc(Cl)c([C@@]3(CF)N=C(N)O[C@@H]4C[C@@H]43)c2)c(Cl)c1` [Example 284, N-(3-((1R,5S,6R)-3-amino-5-(fluoromethyl)-2-oxa-4-azabicyclo[4.1.0]hept-3-en-5-yl)-4-chlorophenyl)-3-chloro-5-methoxypicolinamide], in that order: 0.0149 µM, 752 µM and 0.122 µM.
Turning to `CC#CCOc1cnc(C(=O)Nc2ccc(Cl)c([C@@]3(CF)N=C(N)O[C@@H]4C[C@@H]43)c2)cn1` [Example 285, N-(3-((1R,5S,6R)-3-amino-5-(fluoromethyl)-2-oxa-4-azabicyclo[4.1.0]hept-3-en-5-yl)-4-chlorophenyl)-5-(but-2-yn-1-yloxy)pyrazine-2-carboxamide], the IC50 turned out to be 0.0006 µM at BACE, 1830 µM at Cathepsin D (Cat D) and 0.0022 µM in experiment [1].
The matching figures for `NC1=N[C@@](c2cc(NC(=O)c3cccc(Cl)n3)ccc2F)(C(F)F)[C@H]2C[C@H]2O1` [Example 286, N-(3-((1R,5S,6R)-3-amino-5-(difluoromethyl)-2-oxa-4-azabicyclo[4.1.0]hept-3-en-5-yl)-4-fluorophenyl)-6-chloropicolinamide]: 1.12 µM, 725 µM and 1.57 µM.
For `NC1=N[C@@](c2cc(NC(=O)c3cc(Cl)ccn3)ccc2F)(C(F)F)[C@H]2C[C@H]2O1` [Example 287, N-(3-((1R,5S,6R)-3-amino-5-(difluoromethyl)-2-oxa-4-azabicyclo[4.1.0]hept-3-en-5-yl)-4-fluorophenyl)-4-chloropicolinamide], in that order: 2.11 µM, 1630 µM and 1.93 µM.
The matching figures for `CC(C)c1cccnc1C(=O)Nc1ccc(F)c([C@@]2(C(F)F)N=C(N)O[C@@H]3C[C@@H]32)c1` [Example 288, N-(3-((1R,5S,6R)-3-amino-5-(difluoromethyl)-2-oxa-4-azabicyclo[4.1.0]hept-3-en-5-yl)-4-fluorophenyl)-3-isopropylpicolinamide]: 2.22 µM, 1260 µM and 3.35 µM.
In the case of `CC(C)c1cc(Cl)cnc1C(=O)Nc1ccc(F)c([C@@]2(C(F)F)N=C(N)O[C@@H]3C[C@@H]32)c1` [Example 289, N-(3-((1R,5S,6R)-3-amino-5-(difluoromethyl)-2-oxa-4-azabicyclo[4.1.0]hept-3-en-5-yl)-4-fluorophenyl)-5-chloro-3-isopropylpicolinamide], the IC50 was found to be 0.116 µM at BACE, 700 µM at Cathepsin D (Cat D) and 0.305 µM in experiment [1].
For `NC1=N[C@@](c2cc(NC(=O)c3ncc(Br)cc3C(F)F)ccc2F)(C(F)F)[C@H]2C[C@H]2O1` [Example 290, N-(3-((1R,5S,6R)-3-amino-5-(difluoromethyl)-2-oxa-4-azabicyclo[4.1.0]hept-3-en-5-yl)-4-fluorophenyl)-5-bromo-3-(difluoromethyl) picolinamide], in that order: 0.0222 µM, 252 µM and 0.0141 µM.
For `NC1=N[C@@](c2cc(NC(=O)c3ccc(-c4ccccc4)cn3)ccc2F)(C(F)F)[C@H]2C[C@H]2O1` [Example 291, N-(3-((1R,5S,6R)-3-amino-5-(difluoromethyl)-2-oxa-4-azabicyclo[4.1.0]hept-3-en-5-yl)-4-fluorophenyl)-5-phenylpicolinamide], the concentration for half-maximal inhibition (IC50) at BACE was 1.87 µM; on Cathepsin D (Cat D) it was 148 µM; in experiment [1], 1.15 µM.
For `NC1=N[C@@](c2cc(NC(=O)c3ccccn3)ccc2F)(C(F)F)[C@H]2C[C@H]2O1` [Example 292, N-(3-((1R,5S,6R)-3-amino-5-(difluoromethyl)-2-oxa-4-azabicyclo[4.1.0]hept-3-en-5-yl)-4-fluorophenyl) picolinamide], in that order: 0.279 µM, 690 µM and 0.3 µM.
The matching figures for `Cc1cccnc1C(=O)Nc1ccc(F)c([C@@]2(C(F)F)N=C(N)O[C@@H]3C[C@@H]32)c1` [Example 293]: 0.601 µM, 1660 µM and 0.271 µM.
The matching figures for `COc1cnc(C(=O)Nc2ccc(C)c([C@@]3(C(F)F)N=C(N)O[C@@H]4C[C@@H]43)c2)cn1` [Example 294, N-(3-((1R,5S,6R)-3-amino-5-(difluoromethyl)-2-oxa-4-azabicyclo[4.1.0]hept-3-en-5-yl)-4-methylphenyl)-5-methoxypyrazine-2-carboxamide]: 0.0612 µM, 684 µM and 0.314 µM.
Consider `Cc1ccc(NC(=O)c2ccc(Cl)cn2)cc1[C@@]1(C(F)F)N=C(N)O[C@@H]2C[C@@H]21` [Example 295, N-(3-((1R,5S,6R)-3-amino-5-(difluoromethyl)-2-oxa-4-azabicyclo[4.1.0]hept-3-en-5-yl)-4-methylphenyl)-5-chloropicolinamide], for which the 50% inhibitory concentration (IC50) at BACE stood at 0.0129 µM; at Cathepsin D (Cat D), 464 µM; in experiment [1], 0.0903 µM.
For `NC1=N[C@](c2cc(NC(=O)c3ccc(Br)cn3)ccc2F)(C(F)F)[C@@H]2C[C@@H]2O1` [Example 296, N-(3-((1S,5R,6S)-3-amino-5-(difluoromethyl)-2-oxa-4-azabicyclo[4.1.0]hept-3-en-5-yl)-4-fluorophenyl)-5-bromopicolinamide], in that order: 3.51 µM, 1860 µM and 4.19 µM.
The matching figures for `COc1cnc(C(=O)Nc2cc(C)c(F)c([C@@]3(C(F)F)N=C(N)O[C@@H]4C[C@@H]43)c2)c(C)n1` [Example 300, N-(3-((1R,5S,6R)-3-amino-5-(difluoromethyl)-2-oxa-4-azabicyclo[4.1.0]hept-3-en-5-yl)-4-fluoro-5-methylphenyl)-5-methoxy-3-methylpyrazine-2-carboxamide]: 0.0405 µM, 447 µM and 0.142 µM.
For `COc1cnc(C(=O)Nc2ccc(Cl)c([C@@]3(CF)N=C(N)O[C@@H]4C[C@@H]43)c2)c(C)n1` [Example 301, N-(3-((1R,5S,6R)-3-amino-5-(fluoromethyl)-2-oxa-4-azabicyclo[4.1.0]hept-3-en-5-yl)-4-chlorophenyl)-5-methoxy-3-methylpyrazine-2-carboxamide], in that order: 0.031 µM, 715 µM and 0.352 µM.
Turning to `COc1cnc(C(=O)Nc2cc(C)c(F)c([C@@]3(C(F)F)N=C(N)O[C@@H]4C[C@@H]43)c2)c(C)c1` [Example 305, N-(3-((1R,5S,6R)-3-amino-5-(difluoromethyl)-2-oxa-4-azabicyclo[4.1.0]hept-3-en-5-yl)-4-fluoro-5-methylphenyl)-5-methoxy-3-methylpicolinamide], the concentration for half-maximal inhibition (IC50) was found to be 0.0696 µM at BACE, 288 µM at Cathepsin D (Cat D) and 0.118 µM in experiment [1].

Source of the values: patent publication US9085576B2 (AMGEN INC., priority 2013, dated 2015).
